According to article PMC5913971, “A Novel Piperazine-Based Drug Lead for Cryptosporidiosis from the Medicines for Malaria Venture Open-Access Malaria Box” (Antimicrobial Agents and Chemotherapy, 2018):
Like-named read-outs stand apart in the source and are kept apart here.

How the values were obtained:
[1] = system: C. hominis TU502; experiment: Cryptosporidium hominis growth inhibition assay (1,536-well); type: cell-based; conditions: HCT-8 cells, read-out: EC50 against C. hominis (isolate TU502)
Description: Cryptosporidium hominis growth inhibition assays were performed at the California Institute for Biomedical Research (Calibr), San Diego, CA, using a slightly modified immunofluorescence assay to enable automated compound handling and the use of 1,536-well microtiter plates ([19]). The HCT-8 culture medium was replaced with RPMI 1640 medium supplemented with 2% heat-inactivated horse serum, 100 U/ml penicillin, and […] streptomycin 24 h prior to infection with either C. hominis or the C. parvum Iowa isolate, used as a reference. […] Imaging was performed using a CellInsight CX5 High Content screening platform (Thermo Scientific) with a 10× objective and acquisition of one microscopic field per well. Images were processed using HCS Studio Scan software, and the selected-object count (HCT-8 cells) and spot count (C. hominis) were analyzed in Genedata Screener (version 13.0; Standard). Dose-response curves and EC values were calculated using the Smart Fit function of Genedata Analyzer.

[2] = system: C. parvum Iowa isolate; experiment: NOD SCID gamma (NSG) mouse model of chronic cryptosporidiosis, fecal qPCR; type: in vivo, NOD SCID gamma mice
Description: All NOD SCID gamma mouse studies were performed in compliance with animal care guidelines and were approved by the University of Vermont Institutional Animal Care and Use Committee. NOD SCID gamma mice with normal flora (NOD.Cg-Prkdc^scid Il2rg^tm1Wjl/SzJ) ([38]) were purchased from The Jackson Laboratory (Bar Harbor, ME, USA) and were housed for at least a week for acclimatization. At the age of 4 to 5 weeks, mice were infected with 10^5 C. parvum Iowa isolate oocysts. Fecal oocyst shedding is detected 6 days after infection using a quantitative PCR (qPCR assay), so treatment was started on day 7 after infection. Mice (4 per experimental group) were treated either orally (p.o.) with MMV665917 at 30 or 60 mg/kg BID, intraperitoneally (i.p.) with MMV665917 at 60 mg/kg BID, or p.o. with 1,000 mg/kg paromomycin BID. MMV665917 was suspended in DMSO, sonicated three times, for 30 s each time, to obtain a fine suspension, aliquoted, and stored at −80°C for <10 days. On the day of treatment, aliquots of MMV665917 diluted in DMSO were thawed, mixed well using a vortexer, diluted with 1% HPMC, sonicated as before (three times for 30 s each time), mixed well, and given to mice either p.o. or by i.p. injection. A final concentration of 5% DMSO was used in 100 μl of 1% HPMC per dose. For the additional Malaria Box compounds and compound variants tested, the doses were prepared in the same way, and the specific dosages tested are given in Table S3 in the supplemental material. Mice were treated for either 4 or 7 days, allowed to recover for a week, and then sacrificed. Oocyst shedding in feces was monitored throughout by qPCR, including time points while on treatment and while monitoring for relapsed infection following completion of treatment in Fig. 2A.

[3] = system: C. parvum Iowa isolate; experiment: IFN-γ knockout mouse model of acute cryptosporidiosis; type: in vivo, C57BL/6 IFN-γ−/− mice; conditions: 30 mg/kg twice daily on days 4, 5, 6 postinfection
Description: All interferon gamma (IFN-γ) knockout mouse studies were performed in compliance with animal care guidelines and were approved by the Explora BioLabs (San Diego, CA) Institutional Animal Care and Use Committee. Four-week-old female C57BL/6 IFN-γ^−/− mice with normal flora were purchased from The Jackson Laboratory and were acclimated for 3 days prior to infection by oral gavage with 10^6 C. parvum Iowa isolate oocysts (Sterling Parasitology Laboratory, University of Arizona) suspended in sterile distilled water. At various times postinfection, mice were treated with the compound vehicle alone, clofazimine (used as a positive control), or MMV665917. As described previously, fecal parasite shedding was quantified at various times postinfection by isolating oocysts using a sucrose gradient centrifugation method ([39]), followed by staining for immunofluorescence microscopy using a fluorescein isothiocyanate-conjugated mouse anti-Cryptosporidium antibody (0.25 μg per sample) and analysis with a Guava easyCyte flow cytometer and CytoSoft data acquisition and analysis software (version 5.3; Guava Technologies, Inc.). Oocyst counts per milliliter of sample were exported to Excel (Microsoft Corp.) and were normalized to counts per milligram of feces. Final data analysis and graphing were carried out using GraphPad Prism software (version 6.01).

[4] = system: C. parvum; experiment: Parasite persistence (time-kill) assay in HCT-8 cells; type: cell-based, Cryptosporidium parvum
Description: Excysted C. parvum oocysts were added to >90% confluent HCT-8 cells in 384-well plates. […] At ∼24 h (i.e., the time of compound addition) and at various time intervals thereafter, parasites were washed, fixed, permeabilized, stained, and imaged as for the C. parvum growth assay. For the extended-compound-exposure experiments, the medium and compound were replaced every 3 days. A separate 384-well plate was used for each time interval. Parasite numbers were normalized to host cell nucleus numbers and are expressed as the percentage of parasites per host cell nucleus. In order to fit parasite decay curves, the effect of drugs was isolated from expected changes in parasite numbers over time by expressing the number of parasites as the percentage of the number of parasites with the control, dimethyl sulfoxide (DMSO), for each time point. Exponential decay curves were fit using GraphPad Prism software, version 6.01, and curve validity was assessed using the replicates test.

[5] = system: five mammalian cell lines; experiment: Toxicity profiling in mammalian cell lines; conditions: based on previously reported toxicity profiling
[6] = parameters: method as in PMID 27467575; conditions: single oral dose of 55 mg/kg; cited from earlier work
[7] = parameters: method as in PMID 27467575; conditions: mouse; cited from earlier work
[8] = parameters: method as in PMID 27467575; conditions: human; cited from earlier work
[9] = system: cytochrome P450 (CYP) isoforms (1A2, 2C9, 2C19, 2D6, 3A4-M, and 3A4-T); parameters: method as in PMID 27467575; conditions: at 10 μM; cited from earlier work
[10] = system: hERG; parameters: method as in PMID 27467575; conditions: at 11 μM; cited from earlier work
[11] = system: 11 species of bacteria, 12 protozoa, and 7 helminths; parameters: method as in PMID 27467575; conditions: cited from earlier work

O=C(Nc1ccc(Cl)cc1)N1CCN(c2ccc3nncn3n2)CC1 [MMV665917, Clc1ccc(NC(=O)N2CCN(CC2)c3ccc4nncn4n3)cc1]
EC50 [1]: 4.05 µM | reduction of oocyst shedding ([2]; 30 mg/kg orally twice daily, 7 days, from day 7 after infection): > 90% | efficacy, oral versus intraperitoneal dosing ([2]; 60 mg/kg BID p.o. or i.p., Fig. 4A): equally efficacious regardless of the route of administration | relapse after cessation of treatment ([2]; MMV665917 30 mg/kg orally twice daily, 7 days): relapsed | outcome after cessation of treatment ([2]; MMV665917 60 mg/kg orally twice daily, 7 days): apparently cured | NSG efficacy ([2]; dose 30 mg/kg, interval 12 h, duration 4 days): efficacious | efficacy in IFN-γ KO mouse model of acute infection [3]: highly efficacious | concentration giving maximal rate of parasite elimination [4]: 3 × EC90 | parasiticidal or parasitistatic for C. parvum [4]: parasiticidal | decay rate constant (r) ([4]; 3× EC90, one-phase exponential decay): 0.05346 | decay rate constant (r) ([4]; 12× EC90, one-phase exponential decay): 0.05864 | percentage of host cells infected, extended treatment ([4]; day 13 of treatment, 12 × EC90, medium and drug replaced every 3 days): ~0.1% | selectivity index (SI) for C. parvum over five mammalian cell lines [5]: > 20 | plasma MMV665917 levels over time [6]: continued to increase for 9 h | plasma protein binding [7]: 83.3% | plasma protein binding [8]: 88.8% | inhibition of six CYP isoforms [9]: low inhibition | hERG inhibition [10]: 58% | activity in numerous biological assays (bacteria, protozoa, helminths) [11]: inactive
